Source: PubChem BioAssay (NCI)
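Tested at 5 concentrations; 48 h exposure; 96-well plates; endpoints linearly interpolated, else capped at highest concentration. GI50: concentration for 50% inhibition of growth. TGI: concentration producing complete growth inhibition.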

What was measured:
Experiment in all cases: growth of human tumour cells (NCI), 48 h
[1] = tested on: UACC-62 melanoma
[2] = tested on: HCC-2998 colon
[3] = tested on: NCI-H460 lung
[4] = tested on: MDA-MB-231 breast
[5] = tested on: SK-MEL-5 melanoma
[6] = tested on: HCT-116 colon
[7] = tested on: HL-60(TB) leukemia
[8] = tested on: HOP-92 NSCLC
[9] = tested on: MOLT-4 leukemia
[10] = tested on: SF-539 CNS
[11] = tested on: U251 CNS
[12] = tested on: MDA-MB-435
[13] = tested on: A498 renal
[14] = tested on: SK-MEL-28 melanoma
[15] = tested on: MALME-3M melanoma
[16] = tested on: TK-10 renal
[17] = tested on: ACHN renal
[18] = tested on: NCI/ADR-RES ovarian
[19] = tested on: SNB-19 CNS
[20] = tested on: CAKI-1 renal
[21] = tested on: HS 578T breast
[22] = tested on: RPMI-8226 leukemia
[23] = tested on: 786-0 renal
[24] = tested on: NCI-H226 lung
[25] = tested on: OVCAR-5 ovarian
[26] = tested on: SW-620 colon
[27] = tested on: MCF7 breast
[28] = tested on: KM12 colon
[29] = tested on: A549 NSCLC
[30] = tested on: OVCAR-4 ovarian
[31] = tested on: NCI-H23 lung
[32] = tested on: SR leukemia
[33] = tested on: COLO 205 colon
[34] = tested on: M14 melanoma
[35] = tested on: SF-268 CNS
[36] = tested on: NCI-H522 lung
[37] = tested on: CCRF-CEM leukemia
[38] = tested on: IGROV1 ovarian
[39] = tested on: UO-31 renal
[40] = tested on: LOX IMVI melanoma
[41] = tested on: SNB-75 CNS
[42] = tested on: SK-OV-3 ovarian
[43] = tested on: HT29 colon
[44] = tested on: HCT-15 colon
[45] = tested on: RXF 393 renal
[46] = tested on: K-562 leukemia
[47] = tested on: EKVX NSCLC
[48] = tested on: SN12C renal
[49] = tested on: BT-549 breast
[50] = tested on: DU-145 prostate
[51] = tested on: SF-295 CNS
[52] = tested on: SK-MEL-2 melanoma
[53] = tested on: OVCAR-8 ovarian
[54] = tested on: HOP-62 NSCLC
[55] = tested on: PC-3 prostate
[56] = tested on: UACC-257 melanoma
[57] = tested on: T-47D breast

CC(Nc1c(C#N)cnc2ccc(-c3cnc(N)nc3)cc12)c1ccccc1 (stereo not drawn)
GI50 [1]: 1.08 µM
TGI [1]: 4.53 µM
GI50 [2]: 2 µM
TGI [2]: 13.6 µM
GI50 [3]: 0.987 µM
TGI [3]: 11.6 µM
GI50 [4]: 0.85 µM
TGI [4]: 16.8 µM
GI50 [5]: 1.52 µM
TGI [5]: 3.09 µM
GI50 [6]: 1.71 µM
TGI [6]: 5.93 µM
GI50 [7]: 2.46 µM
TGI [7]: > 39.5 µM
GI50 [8]: 0.138 µM
TGI [8]: 0.827 µM
GI50 [9]: 0.87 µM
TGI [9]: 6.14 µM
GI50 [10]: 1.31 µM
TGI [10]: 5.98 µM
GI50 [11]: 1.55 µM
TGI [11]: 11.2 µM
GI50 [12]: 1.67 µM
TGI [12]: 9.57 µM
GI50 [13]: 0.199 µM
TGI [13]: 1.04 µM
GI50 [14]: 1.59 µM
TGI [14]: 8.97 µM
GI50 [15]: 0.527 µM
TGI [15]: 3.79 µM
GI50 [16]: 0.206 µM
TGI [16]: 1.86 µM
GI50 [17]: 0.785 µM
TGI [17]: 13.2 µM
GI50 [18]: 2.34 µM
TGI [18]: 28.3 µM
GI50 [19]: 1.59 µM
TGI [19]: 20 µM
GI50 [20]: 0.441 µM
TGI [20]: 4.28 µM
GI50 [21]: 0.422 µM
TGI [21]: 2.84 µM
GI50 [22]: 0.382 µM
TGI [22]: 2.96 µM
GI50 [23]: 1.36 µM
TGI [23]: 10.2 µM
GI50 [24]: 1.53 µM
TGI [24]: 16.6 µM
GI50 [25]: 0.787 µM
TGI [25]: 13.6 µM
GI50 [26]: 2.62 µM
TGI [26]: 12.2 µM
GI50 [27]: 0.64 µM
TGI [27]: > 35.3 µM
GI50 [28]: 1.75 µM
TGI [28]: 8.64 µM
GI50 [29]: 1.03 µM
TGI [29]: 11.7 µM
GI50 [30]: 0.527 µM
TGI [30]: 4.76 µM
GI50 [31]: 1.7 µM
TGI [31]: 11 µM
GI50 [32]: 0.741 µM
TGI [32]: > 43.4 µM
GI50 [33]: 1.78 µM
TGI [33]: 6.82 µM
GI50 [34]: 1.56 µM
TGI [34]: 11.2 µM
GI50 [35]: 1.24 µM
TGI [35]: 8.79 µM
GI50 [36]: 2.2 µM
TGI [36]: 10.5 µM
GI50 [37]: 1 µM
TGI [37]: 40.2 µM
GI50 [38]: 0.374 µM
TGI [38]: 2.4 µM
GI50 [39]: 0.252 µM
TGI [39]: 5.84 µM
GI50 [40]: 0.915 µM
TGI [40]: 5.85 µM
GI50 [41]: 0.258 µM
TGI [41]: 2.45 µM
GI50 [42]: 1.21 µM
TGI [42]: 5.72 µM
GI50 [43]: 1.63 µM
TGI [43]: 13.9 µM
GI50 [44]: 1.24 µM
TGI [44]: > 38.6 µM
GI50 [45]: 0.559 µM
TGI [45]: 3.9 µM
GI50 [46]: 2.16 µM
TGI [46]: > 100 µM
GI50 [47]: 0.857 µM
TGI [47]: > 23.8 µM
GI50 [48]: 0.765 µM
TGI [48]: 14.8 µM
GI50 [49]: 0.41 µM
TGI [49]: 4.51 µM
GI50 [50]: 0.796 µM
TGI [50]: 13.3 µM
GI50 [51]: 1.08 µM
TGI [51]: > 23.1 µM
GI50 [52]: 1.12 µM
TGI [52]: 2.95 µM
GI50 [53]: 1.72 µM
TGI [53]: 11.6 µM
GI50 [54]: 1.09 µM
TGI [54]: 9.82 µM
GI50 [55]: 0.72 µM
TGI [55]: 10.6 µM
GI50 [56]: 2.11 µM
TGI [56]: 10.5 µM
GI50 [57]: 0.446 µM
